Data from US8658591B2, “Multi-LEU peptides and analogues thereof as selective PACE4 inhibitors and effective antiproliferative agents” (priority 2008, dated 2014).

Columns and labels:
Format in all cases: biochemical
PC1/3 = target: T1, PC1/3 (Homo sapiens, UniProt P29120); experiment: Enzyme inhibition assay, fluorogenic substrate, PC1/3
T1 sequence (P29120 111-753): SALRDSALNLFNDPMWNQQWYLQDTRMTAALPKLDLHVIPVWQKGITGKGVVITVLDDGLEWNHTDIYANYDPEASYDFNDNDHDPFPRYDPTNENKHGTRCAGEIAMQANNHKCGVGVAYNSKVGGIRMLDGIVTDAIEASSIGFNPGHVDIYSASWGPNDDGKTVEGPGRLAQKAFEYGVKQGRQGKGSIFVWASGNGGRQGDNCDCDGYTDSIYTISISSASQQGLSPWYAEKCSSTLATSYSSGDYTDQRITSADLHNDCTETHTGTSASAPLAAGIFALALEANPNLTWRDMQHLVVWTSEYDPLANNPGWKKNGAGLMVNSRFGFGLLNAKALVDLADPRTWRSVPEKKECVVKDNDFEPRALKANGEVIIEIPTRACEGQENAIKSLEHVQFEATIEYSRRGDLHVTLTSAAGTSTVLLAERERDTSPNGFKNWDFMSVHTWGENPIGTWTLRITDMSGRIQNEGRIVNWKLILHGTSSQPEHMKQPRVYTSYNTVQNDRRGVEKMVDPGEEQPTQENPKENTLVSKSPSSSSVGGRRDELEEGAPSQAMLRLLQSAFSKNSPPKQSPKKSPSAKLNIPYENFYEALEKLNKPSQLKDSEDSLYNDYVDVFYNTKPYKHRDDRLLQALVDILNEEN
Description: (§1) Enzyme inhibition assays for furin (FIG. 5D) were performed in 100 mM Hepes pH 7.5, 1 mM CaCl2, 1 mM β-mercaptoethanol, 0.5 μg/μL BSA. Assays for PC2 (FIG. 5E) were performed in 20 mM Bis-Tris pH 5,7, 1 mM CaCl2, 0.1% Brij-30. Assays for PC1/3, PC4, PACE4, PC5/6 and PC7 (FIGS. 5F, G, A, B and C respectively) were performed in 20 mM Bis-Tis pH 6.5, 1 mM CaCl2. All assays were performed with the substrate pyroGlu-Arg-[…]-Lys-Arg-methyl-coumaryl-7-amide (SEQ ID NO: 33) (PyrRTKR-MCA (SEQ ID NO: 34)) (Bachem, CA) at 100 μM for furin, PC1/3, PC4, PACE4 and PC5/6, 200 μM for PC2 and 250 μM for PC7. Assays were carried out at 37° C. for 30-60 min and real-time fluorescence was measured with an excitation wavelength of 370 nm and an emission wavelength of 460 nm using a Gemini XS™ 96-well spectrofluorometer and SoftMaxPro4™ software (Molecular Devices, CA). Inhibitory peptides were added to the enzymes at decreasing concentrations from 100 μM to 50 nM and incubated 5 minutes prior to the addition of substrate.

PC4 = target: T2, PC4 (Homo sapiens, UniProt Q6UW60); experiment: Enzyme inhibition assay, fluorogenic substrate, PC4
T2 sequence (Q6UW60 114-755): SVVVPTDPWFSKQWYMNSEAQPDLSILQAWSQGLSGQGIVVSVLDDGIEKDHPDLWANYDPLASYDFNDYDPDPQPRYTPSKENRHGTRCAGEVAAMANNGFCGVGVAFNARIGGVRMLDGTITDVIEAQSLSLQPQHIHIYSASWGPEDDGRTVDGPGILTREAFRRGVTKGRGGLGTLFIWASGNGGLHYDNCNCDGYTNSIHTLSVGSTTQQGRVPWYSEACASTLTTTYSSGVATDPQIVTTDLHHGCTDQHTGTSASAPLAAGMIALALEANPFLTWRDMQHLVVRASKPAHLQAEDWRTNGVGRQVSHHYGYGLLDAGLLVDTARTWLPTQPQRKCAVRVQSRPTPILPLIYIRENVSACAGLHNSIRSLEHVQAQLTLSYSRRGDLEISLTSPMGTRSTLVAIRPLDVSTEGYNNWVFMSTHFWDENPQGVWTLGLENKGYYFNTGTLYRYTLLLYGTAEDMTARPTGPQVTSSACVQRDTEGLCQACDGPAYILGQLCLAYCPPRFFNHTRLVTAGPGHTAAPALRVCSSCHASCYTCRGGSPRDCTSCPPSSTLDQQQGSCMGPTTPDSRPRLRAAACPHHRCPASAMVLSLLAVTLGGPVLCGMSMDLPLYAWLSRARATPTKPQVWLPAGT
Description: as §1

PACE4 = target: T3, PACE4 (Homo sapiens, UniProt P29122); experiment: Enzyme inhibition assay, fluorogenic substrate, PACE4
T3 sequence (P29122 150-969): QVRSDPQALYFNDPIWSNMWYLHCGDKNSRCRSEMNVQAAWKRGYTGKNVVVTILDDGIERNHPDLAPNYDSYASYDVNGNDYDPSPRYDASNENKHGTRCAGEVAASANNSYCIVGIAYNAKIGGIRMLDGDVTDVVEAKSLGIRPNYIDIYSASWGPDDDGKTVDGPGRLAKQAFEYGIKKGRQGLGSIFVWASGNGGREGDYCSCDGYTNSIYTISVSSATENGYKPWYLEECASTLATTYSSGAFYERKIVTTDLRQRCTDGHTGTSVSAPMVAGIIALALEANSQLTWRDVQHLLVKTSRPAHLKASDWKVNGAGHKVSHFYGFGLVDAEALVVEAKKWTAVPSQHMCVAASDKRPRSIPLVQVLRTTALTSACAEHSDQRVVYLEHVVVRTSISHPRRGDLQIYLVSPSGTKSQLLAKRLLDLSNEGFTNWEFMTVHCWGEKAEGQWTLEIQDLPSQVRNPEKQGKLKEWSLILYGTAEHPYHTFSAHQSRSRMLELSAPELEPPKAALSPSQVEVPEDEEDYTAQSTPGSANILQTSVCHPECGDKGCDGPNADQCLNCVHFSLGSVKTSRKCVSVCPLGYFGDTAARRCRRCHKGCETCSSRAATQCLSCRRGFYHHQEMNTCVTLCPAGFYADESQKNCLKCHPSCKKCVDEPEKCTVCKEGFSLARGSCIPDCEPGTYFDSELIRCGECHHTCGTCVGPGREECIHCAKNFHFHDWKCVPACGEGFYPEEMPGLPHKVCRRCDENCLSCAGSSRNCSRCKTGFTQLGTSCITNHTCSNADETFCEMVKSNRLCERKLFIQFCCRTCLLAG
From the text: Those skilled in the art can easily determine PACE4 activity using routine experimentation. For example, the activity assay of PACE4 can be carried out in 96 well plates, and includes the use of a fluorogenic substrate, namely PyrRTKR-AMC (SEQ ID NO: 30) (AMC is amino-methyl-coumarin). The substrate and the purified enzyme are placed in the wells, and depending on the units of enzyme present, the AMC moiety will be cleaved at a certain rate, such a pmoles/sec. The resultant free AMC is now fluorescent and can be detected with a spectrofluorometer. The addition of inhibitors to the assay will yield progress curves that have lesser slopes. Based on these changes the inhibitory constants (Ki) is calculated (Fugere et al., 2002, J. Biol. Chem., 277:7648-56).
as §1

inhibition potency on PC1/3, in words (PC1/3): poor micromolar inhibitor
inhibition potency on PC4, in words (PC4): poor micromolar inhibitor
inhibition potency on PACE4, in words (PACE4): poor micromolar inhibitor
Substance: RVKR [RVKR—NH2, RVKR-NH2]
